The values below come from PMC12238238, “Identification of gut bacteria reductases that biotransform steroid hormones” (Nature Communications, 2025).

For experiment [1], the target named is T1, ci2350 (Δ4-3-ketosteroid 5β-reductase).
T1 construct: recombinant in E. coli, Ni HisTrap purified (pET28a/kanamycin); mutants assayed in E. coli cells
The experiment in a line: isothermal titration calorimetry. The format is binding, [Clostridium] innocuum. The note with it: 0.1 M sodium phosphate, 0.2 M NaCl, 20 mM BME, 0.5 mM CHAPS, pH 6.5, 25 °C; independent model, single site. On the technique in general: Isothermal titration calorimetry measures the heat released or taken up as one component is titrated into another.

Experiment [2] concerns the target T2, baiH ([Clostridium] scindens, UniProt P32370).
T2 construct: expressed in E. coli, whole-cell biotransformation
T2 sequence (P32370 1-661): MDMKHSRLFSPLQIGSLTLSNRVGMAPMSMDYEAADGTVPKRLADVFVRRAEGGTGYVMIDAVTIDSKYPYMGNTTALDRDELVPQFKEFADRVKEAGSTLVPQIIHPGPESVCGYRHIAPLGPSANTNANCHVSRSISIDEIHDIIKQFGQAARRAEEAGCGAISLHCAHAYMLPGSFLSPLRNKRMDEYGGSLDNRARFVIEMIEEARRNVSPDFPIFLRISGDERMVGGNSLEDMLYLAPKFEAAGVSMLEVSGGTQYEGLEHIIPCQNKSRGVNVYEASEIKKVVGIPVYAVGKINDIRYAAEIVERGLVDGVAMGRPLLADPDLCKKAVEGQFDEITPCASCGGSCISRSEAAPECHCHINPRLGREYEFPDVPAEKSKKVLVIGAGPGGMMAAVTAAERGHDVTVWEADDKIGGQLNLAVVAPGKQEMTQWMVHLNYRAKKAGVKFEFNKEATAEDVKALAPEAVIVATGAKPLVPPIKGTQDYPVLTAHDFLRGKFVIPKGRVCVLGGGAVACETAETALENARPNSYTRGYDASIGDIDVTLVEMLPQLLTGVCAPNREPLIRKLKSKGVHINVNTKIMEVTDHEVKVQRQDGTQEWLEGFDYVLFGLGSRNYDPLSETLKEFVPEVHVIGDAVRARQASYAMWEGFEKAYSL
Kind of experiment: LC-MS of products in E. coli expressing the gene. The format is cell-based. The conditions noted are these: whole E. coli cells, anaerobic, 1 mg/100 mL steroid, 48 h, 37 °C; product progesterone.

Experiment [3] addresses T3, dw0523 (3β-HSDH/I) (Dysosmobacter welbionis, UniProt A0A4D7AXI1).
T3 construct: gene EIO64_02590; expressed in E. coli, whole-cell biotransformation; separate (unfused) 3β-HSDH/I gene
T3 sequence (A0A4D7AXI1 1-497): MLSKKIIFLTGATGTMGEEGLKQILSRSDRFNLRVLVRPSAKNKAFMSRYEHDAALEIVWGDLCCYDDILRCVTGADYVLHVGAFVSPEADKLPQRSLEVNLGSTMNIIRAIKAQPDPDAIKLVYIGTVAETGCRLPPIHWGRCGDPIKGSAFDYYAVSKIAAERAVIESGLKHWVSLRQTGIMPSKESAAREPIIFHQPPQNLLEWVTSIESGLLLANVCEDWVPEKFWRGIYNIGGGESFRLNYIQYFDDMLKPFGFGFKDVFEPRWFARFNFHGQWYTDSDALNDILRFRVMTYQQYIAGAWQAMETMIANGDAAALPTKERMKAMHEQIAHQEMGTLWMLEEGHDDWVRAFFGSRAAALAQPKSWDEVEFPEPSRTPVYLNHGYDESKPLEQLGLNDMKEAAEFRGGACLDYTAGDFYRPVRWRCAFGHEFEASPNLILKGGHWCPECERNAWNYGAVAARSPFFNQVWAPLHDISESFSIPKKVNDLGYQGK
Kind of experiment: LC-MS of products in E. coli expressing the gene. The experiment is classed as cell-based. The note with it: whole E. coli cells, anaerobic, 1 mg/100 mL steroid, 48 h, 37 °C; product progesterone.

Experiment [4] concerns the target T4, baiCD ([Clostridium] scindens, UniProt P19410).
T4 construct: expressed in E. coli, whole-cell biotransformation
T4 sequence (P19410 1-639): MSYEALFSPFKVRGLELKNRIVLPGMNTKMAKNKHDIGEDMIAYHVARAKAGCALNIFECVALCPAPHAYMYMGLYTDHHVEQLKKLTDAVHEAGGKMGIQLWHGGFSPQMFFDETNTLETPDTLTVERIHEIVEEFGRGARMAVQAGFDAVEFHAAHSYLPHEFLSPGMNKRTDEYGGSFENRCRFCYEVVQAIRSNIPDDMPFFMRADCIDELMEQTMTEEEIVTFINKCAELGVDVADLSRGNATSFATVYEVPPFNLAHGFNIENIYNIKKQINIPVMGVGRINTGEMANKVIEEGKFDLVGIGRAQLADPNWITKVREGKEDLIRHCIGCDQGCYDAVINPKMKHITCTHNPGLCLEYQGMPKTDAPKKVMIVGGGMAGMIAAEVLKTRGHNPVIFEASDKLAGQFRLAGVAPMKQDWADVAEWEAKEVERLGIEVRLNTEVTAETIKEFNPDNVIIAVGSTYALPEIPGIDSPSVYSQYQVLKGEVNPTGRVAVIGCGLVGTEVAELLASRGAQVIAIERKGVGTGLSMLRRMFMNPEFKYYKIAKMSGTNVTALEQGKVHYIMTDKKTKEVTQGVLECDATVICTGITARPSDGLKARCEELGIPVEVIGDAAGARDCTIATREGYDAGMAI
Kind of experiment: LC-MS of products in E. coli expressing the gene. The conditions noted are these: whole E. coli cells, anaerobic, 1 mg/100 mL steroid, 48 h, 37 °C; product 5β-dihydroprogesterone. The experiment is classed as cell-based.

Turning to `CC(=O)[C@H]1CC[C@H]2[C@@H]3C=CC4=CC(=O)CC[C@]4(C)[C@H]3CC[C@]12C` [6-dehydroprogesterone], in experiment [1], binding was put at a Kd of 594 nM. For the same molecule, in experiment [2], the “LC-MS of products in E. coli expressing the gene” value (“LC-MS of products” below) is “only partial conversion of the substrate by C. scindens baiH”.

Take `C[C@]12CCC(=O)C=C1CC[C@@H]1[C@@H]2C(=O)C[C@@]2(C)[C@H]1CC[C@]2(O)C(=O)CO` [cortisone]: the Kd (commonly the free concentration of one partner at which half of the binding sites on the other are occupied at equilibrium, for simple one-to-one binding) in experiment [1] came to 759 nM.

`C[C@]12CCC(=O)C=C1CC[C@@H]1[C@@H]2[C@@H](O)C[C@@]2(C)[C@H]1CC[C@]2(O)C(=O)CO` [hydrocortisone] registered a Kd in experiment [1] of 668 nM.

As to `CC(=O)[C@H]1CC[C@H]2[C@@H]3CC=C4C[C@@H](O)CC[C@]4(C)[C@H]3CC[C@]12C` [pregnenolone], in experiment [3], the “LC-MS of products” value is “with dw0523 producing only progesterone”.

Molecule `CC(=O)[C@H]1CC[C@H]2[C@@H]3CCC4=CC(=O)CC[C@]4(C)[C@H]3CC[C@]12C` [progesterone] displayed a Kd in experiment [1] of 432 nM. For the same molecule, in experiment [4], the “LC-MS of products” value is “baiCD had limited, but detectable, reduction of progesterone”.
